Literature values in publication PMC4552746, “Conformational Properties of Seven Toac-Labeled Angiotensin I Analogues Correlate with Their Muscle Contraction Activity and Their Ability to Act as ACE Substrates” (PLoS ONE, 2015).

System: thoracic rabbit aorta strips
Parameters: method as in earlier work
Conditions: ref 48 (Cordopatis and Theodoropoulos)

## [1-Aib]-angiotensin II [Aib^1-AngII]
  Potency, in words: displays high potency
